In data set [1] the target is T1, Amyloid-beta precursor protein (Homo sapiens, UniProt P05067). Nature of the data set: Inhibition of amyloid beta (1 to 42 ) (unknown origin) self aggregation at 25 uM measured after 3 hrs by ThT fluorescence assay relative to control.
The nature of data set [2]: Metal chelating activity assessed as Cu2+-compound complex formation by measuring hyperchromic shift at 30 to 60 uM by UV-visible spectrophotometry. The conditions noted are these: dose 30-60 µM.
Data set [3] has as its target T2, Acetylcholinesterase (Homo sapiens, UniProt P22303).
Description: Inhibition of C-terminal 6His-tagged human recombinant AChE (32 to 614 residues) expressed in HEK293 cells using acetylthiocholine iodide as substrate preincubated for 5 mins followed by substrate addition by Ellman's method
Data set [4] is described as follows: Metal chelating activity assessed as Cu2+-compound complex formation by measuring bathochromic shift at 30 to 60 uM by UV-visible spectrophotometry. The conditions noted are these: dose 30-60 µM.
Data set [5] in a line: Metal chelating activity assessed as Fe2+-compound complex formation by measuring hyperchromic shift at 30 to 60 uM by UV-visible spectrophotometry. The conditions noted are these: dose 30-60 µM.
For the next data set, the system named is AChE. It counts as toxicity, cell-based. Particulars: human, probe acetylthiocholine iodide; read-out: Ratio IC50.
The next data set is described as follows: in vitro. The conditions noted are these: human, HepG2 cells.
Data set [6] addresses T1, Amyloid-beta precursor protein. The data set can be described thus: Inhibition of amyloid beta (1 to 42 ) (unknown origin) self aggregation measured after 3 hrs by ThT fluorescence assay.
Data set [7] deals with T3, Cholinesterase (Homo sapiens, UniProt P06276).
Description: Inhibition of C-terminal 6His-tagged human recombinant BuChE (29 to 602 residues) using butyrylthiocholine iodide as substrate preincubated for 5 mins followed by substrate addition by Ellman's method
Data set [8] in a line: Metal chelating activity assessed as Zn2+-compound complex formation by measuring hyperchromic shift at 30 to 60 uM by UV-visible spectrophotometry. Particulars: dose 30-60 µM.
A short description of the next data set: in vivo. Particulars: Sprague-Dawley, rat, ip.
A short description of another data set: animal or person. It counts as functional. Particulars: Rattus norvegicus, Sprague-Dawley, Brain, route ip, time 1 hrs.
Data set [9] deals with T2, Acetylcholinesterase. Nature of the data set: Inhibition of human recombinant AChE using acetylthiocholine as substrate preincubated for 5 mins followed by substrate addition by Ellman's method. Background: Ellman's reagent forms a yellow product with free thiols.
The target of data set [10] is T3, Cholinesterase. Nature of the data set: Inhibition of human plasma BuChE using butyrylthiocholine as substrate preincubated for 5 mins followed by substrate addition by Ellman's method. It is filed as cell-free.
Data set [11] in a line: Metal chelating activity assessed as Zn2+-compound complex formation by measuring bathochromic shift at 30 to 60 uM by UV-visible spectrophotometry. The conditions noted are these: dose 30-60 µM.
The nature of data set [12]: Metal chelating activity assessed as Fe2+-compound complex formation by measuring bathochromic shift at 30 to 60 uM by UV-visible spectrophotometry. The conditions noted are these: dose 30-60 µM.
Data set [13] can be described thus: Metal chelating activity assessed as Zn2+-compound complex formation by measuring hypochromic shift at 30 to 60 uM by UV-visible spectrophotometry. The conditions noted are these: dose 30-60 µM.
The nature of data set [14]: Toxicity in Sprague-Dawley rat assessed as mortality up to 120 mg/kg, ip administered as single dose measured after 24 hrs. It is filed as organism-based. The conditions noted are these: in vivo.

Activity calls are given as the source filed them. No cut-off for these calls is given here.

As a reminder, the inhibition is the relative decrease from the control value, in per cent. Low readings indicate little suppression, high ones strong suppression. A word on the IC50: it is the concentration that gives 50% inhibition. What is called LD50 is the dose expected to kill half of the subjects tested. A high value points to lower toxicity. A word on the inhibition in vivo: it is the percentage by which the read-out fell short of the control. A lower inhibition in vivo goes with a response near the control.

T2 sequence (P22303 whole entry): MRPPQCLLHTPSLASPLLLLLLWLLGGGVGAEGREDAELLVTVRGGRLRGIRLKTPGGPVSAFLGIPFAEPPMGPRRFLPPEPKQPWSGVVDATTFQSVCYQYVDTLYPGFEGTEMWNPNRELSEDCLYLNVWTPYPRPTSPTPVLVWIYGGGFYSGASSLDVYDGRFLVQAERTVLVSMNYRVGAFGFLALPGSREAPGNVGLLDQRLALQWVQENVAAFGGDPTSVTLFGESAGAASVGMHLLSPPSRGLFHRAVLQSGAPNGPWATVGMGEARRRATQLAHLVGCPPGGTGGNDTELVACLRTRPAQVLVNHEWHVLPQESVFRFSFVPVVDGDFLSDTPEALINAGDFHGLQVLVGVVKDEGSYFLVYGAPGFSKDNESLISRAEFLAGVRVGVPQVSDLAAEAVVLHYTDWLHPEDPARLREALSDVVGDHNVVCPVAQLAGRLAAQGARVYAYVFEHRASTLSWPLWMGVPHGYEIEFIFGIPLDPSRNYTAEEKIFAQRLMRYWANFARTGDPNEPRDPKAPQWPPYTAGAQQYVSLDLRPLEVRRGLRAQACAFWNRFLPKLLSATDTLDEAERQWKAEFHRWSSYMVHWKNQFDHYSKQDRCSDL
T1 sequence (P05067 whole entry): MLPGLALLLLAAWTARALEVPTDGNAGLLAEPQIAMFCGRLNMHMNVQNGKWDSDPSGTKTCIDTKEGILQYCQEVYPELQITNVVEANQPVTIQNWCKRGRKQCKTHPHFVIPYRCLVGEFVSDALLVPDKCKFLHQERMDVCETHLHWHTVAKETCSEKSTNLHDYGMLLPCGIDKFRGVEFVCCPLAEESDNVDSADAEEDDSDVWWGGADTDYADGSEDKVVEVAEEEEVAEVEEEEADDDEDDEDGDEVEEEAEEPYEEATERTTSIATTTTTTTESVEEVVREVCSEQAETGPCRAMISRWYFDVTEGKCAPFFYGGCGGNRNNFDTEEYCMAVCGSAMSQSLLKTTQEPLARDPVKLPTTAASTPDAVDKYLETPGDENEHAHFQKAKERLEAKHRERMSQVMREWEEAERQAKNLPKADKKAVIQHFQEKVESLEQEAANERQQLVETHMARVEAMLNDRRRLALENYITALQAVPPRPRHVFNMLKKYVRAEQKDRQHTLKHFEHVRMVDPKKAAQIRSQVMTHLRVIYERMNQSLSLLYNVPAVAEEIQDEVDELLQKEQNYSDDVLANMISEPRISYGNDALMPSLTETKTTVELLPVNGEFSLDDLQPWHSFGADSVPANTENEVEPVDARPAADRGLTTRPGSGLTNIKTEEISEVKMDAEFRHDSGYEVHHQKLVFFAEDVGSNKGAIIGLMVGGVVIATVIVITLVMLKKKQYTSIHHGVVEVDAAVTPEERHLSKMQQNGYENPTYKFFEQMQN
T3 sequence (P06276 whole entry): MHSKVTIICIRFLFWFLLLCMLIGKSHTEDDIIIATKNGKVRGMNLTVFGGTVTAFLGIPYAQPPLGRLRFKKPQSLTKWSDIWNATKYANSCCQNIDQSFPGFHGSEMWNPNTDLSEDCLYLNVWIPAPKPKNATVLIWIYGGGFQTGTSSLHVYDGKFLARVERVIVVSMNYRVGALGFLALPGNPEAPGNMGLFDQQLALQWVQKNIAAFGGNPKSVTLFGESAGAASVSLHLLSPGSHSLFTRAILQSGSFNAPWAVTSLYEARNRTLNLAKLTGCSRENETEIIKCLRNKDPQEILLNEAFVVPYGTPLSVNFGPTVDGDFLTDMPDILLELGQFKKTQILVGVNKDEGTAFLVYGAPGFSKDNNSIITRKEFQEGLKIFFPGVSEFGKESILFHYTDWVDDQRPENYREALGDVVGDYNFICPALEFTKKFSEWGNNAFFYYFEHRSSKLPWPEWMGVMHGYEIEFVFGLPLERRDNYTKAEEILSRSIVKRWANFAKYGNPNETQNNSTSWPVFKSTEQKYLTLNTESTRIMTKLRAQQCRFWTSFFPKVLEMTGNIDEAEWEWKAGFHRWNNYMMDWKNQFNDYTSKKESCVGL
Description for in vitro: Cytotoxicity against human HepG2 cells assessed as cell growth inhibition incubated for 72 hrs by MTT assay
Description for in vivo: Toxicity in Sprague-Dawley rat assessed as median lethal dose administered intraperitoneally as single dose

In [1], `O=[N+]([O-])c1ccc2nc3c(c(Nc4[nH]nc5ncccc45)c2c1)CCCC3` yielded an inhibition of 81.5%. The result in data set [2], in data set [4], in data set [5] and in [8] was Active. Moreover, the IC50 against Acetylcholinesterase [3] came to 299 nM; in data set [6], 777 nM; against Cholinesterase [7], 429 nM. In the data set with AChE, the selectivity ratio at 72 h was 105. The IC50 at 72 h in the data set “in vitro” was determined as 31300 nM.
Turning to `O=[N+]([O-])c1ccc2nc3c(c(N4CCCCC4)c2c1)CCCC3`, half-maximal inhibition at Acetylcholinesterase [3] (IC50) required 1890 nM.
In the data set “in vivo”, `COc1cc2c(cc1OC)C(=O)C(CC1CCN(Cc3ccccc3)CC1)C2` (centres undefined) [DONEPEZIL] gave an LD50 of 32.5 mg/kg. Further, 10 mg/kg produced 46.5% inhibition in vivo in the data set “animal or person”.
For the compound `Cc1ccc2nc3c(c(NCCN4CCN(C)CC4)c2c1)CCCC3`, the IC50 at Acetylcholinesterase [3] came out at 974 nM.
`Cc1ccc2nc3c(c(NCCO)c2c1)CCCC3`: the inhibition in data set [1] is 69.8%. Also, the half-inhibitory concentration (IC50) at Acetylcholinesterase [3] came out at 180 nM; in data set [6], 2950 nM; against Cholinesterase [7], 840 nM.
`O=C(CN1CCN(c2ccccc2)CC1)Nc1n[nH]c2ncccc12` showed an IC50 at Acetylcholinesterase [3] of 1950 nM.
As for `O=C(Cn1nc2ncccc2c1NC(=O)Cn1nc2ncccc2c1NC(=O)CN1CCN(Cc2ccccc2)CC1)Nc1[nH]nc2ncccc12`, the IC50 at Acetylcholinesterase [3] came to 18000 nM.
For the compound `CN1CCN(CCC(=O)Nc2n[nH]c3ncccc23)CC1`, 844 nM corresponded to half-maximal inhibition against Acetylcholinesterase [3] (IC50).
Regarding `c1ccc2c(NCCN3CCOCC3)c3c(nc2c1)CCCC3`, the IC50 at Acetylcholinesterase [9] amounted to 93 nM; against Cholinesterase [10], 16 nM.
In the case of `Cc1ccc2nc3c(c(NCCCl)c2c1)CCCC3`, on Acetylcholinesterase [3], 763 nM corresponded to half-maximal inhibition (IC50).
At Acetylcholinesterase [3], `Cc1ccc2nc3c(c(NCCN4CCCCC4)c2c1)CCCC3` had an IC50 of 2540 nM.
`Cc1ccc2nc3c(c(NCCN4CCOCC4)c2c1)CCCC3` yielded an inhibition in data set [1] of 54.6%. For the same compound, the outcome in data set [2], in data set [4], in [5], in data set [11], in [8] and in [12] was Active. Also, the IC50 at Acetylcholinesterase [3] amounted to 131 nM; in [6], 15000 nM; at Cholinesterase [7], 3130 nM. Besides, in the data set with AChE, the selectivity ratio at 72 h is 72.8. The compound further yielded an IC50 at 72 h in the data set “in vitro” of 9530 nM. The LD50 in “in vivo” was determined as 96.5 mg/kg. Also, at 10 mg/kg the inhibition in vivo in “animal or person” was 35%.
In data set [1], `COc1cc2nc3c(c(N4CCOCC4)c2cc1OC)CCCC3` returned an inhibition of 78.6%. Also, the result in data set [2], in data set [13], in data set [4], in data set [5], in data set [8] and in data set [12] was Active. The IC50 was determined as 62 nM at Acetylcholinesterase [3], 1230 nM in data set [6] and 767 nM at Cholinesterase [7]. The selectivity ratio at 72 h in the data set on AChE was 102. Half-maximal inhibition in “in vitro” (IC50 at 72 h) required 6300 nM. Also, in the data set “animal or person”, at 10 mg/kg the inhibition in vivo was 35%. Further, the Activity entry in [14] is reported as “Non-Toxic”.
`O=C(CN1CCN(Cc2ccccc2)CC1)Nc1n[nH]c2ncccc12` returned an inhibition in data set [1] of 65%. For the same compound, the IC50 against Acetylcholinesterase [3] came to 301 nM; in data set [6] it was 5670 nM; against Cholinesterase [7], 2810 nM.
At Acetylcholinesterase [3], `Cc1ccc2nc3c(c(N4CCOCC4)c2c1)CCCC3` had an IC50 of 1780 nM.
As for `Nc1nn(-c2c3c(nc4ccc([N+](=O)[O-])cc24)CCCC3)c2ncccc12`, the inhibition in [1] came out at 48%. Also, the IC50 was 56 nM against Acetylcholinesterase [3], 31800 nM in data set [6] and 5220 nM at Cholinesterase [7]. For the same compound, the result in data set [13] and in [5] was Active. Also, in the data set on AChE, the selectivity ratio at 72 h was 800. The IC50 at 72 h in the data set “in vitro” turned out to be 44800 nM.
Regarding `Cc1ccc2nc3c(c(NCCN4CCN(Cc5ccccc5)CC4)c2c1)CCCC3`, the IC50 at Acetylcholinesterase [3] stood at 6380 nM.
The compound `O=C(CCN1CCN(c2ccccc2)CC1)Nc1n[nH]c2ncccc12` displayed an inhibition in data set [1] of 65.5%. Also, the IC50 worked out at 230 nM against Acetylcholinesterase [3], 1980 nM in data set [6] and 782 nM on Cholinesterase [7].
On Acetylcholinesterase [3], `Cc1ccc2nc3c(c(N4CCN(C)CC4)c2c1)CCCC3` gave an IC50 of 440 nM.
On Acetylcholinesterase [3], `CC(=O)Nc1ccc2nc3c(c(N4CCOCC4)c2c1)CCCC3` showed an IC50 of 1110 nM.
`Cc1ccc2nc3c(c(Nc4[nH]nc5ncccc45)c2c1)CCCC3` came in with an IC50 at Acetylcholinesterase [3] of 811 nM.
For `CN1CCN(c2c3c(nc4ccc([N+](=O)[O-])cc24)CCCC3)CC1`, the inhibition in data set [1] was 66.4%. Moreover, the IC50 against Acetylcholinesterase [3] was determined as 245 nM; in [6] it was 4490 nM; at Cholinesterase [7], 166 nM.
Taken in the same sequence, the figures for `CC(=O)Nc1ccc2nc3c(c(N4CCCCC4)c2c1)CCCC3` were 77.3%, 301 nM, 1300 nM and 459 nM.
As for `O=C(CCN1CCN(Cc2ccccc2)CC1)Nc1n[nH]c2ncccc12`, the inhibition in data set [1] is 55.5%. Also, the IC50 stood at 34 nM against Acetylcholinesterase [3], 13300 nM in [6] and 3570 nM on Cholinesterase [7]. Also, the outcome in [4], in data set [5] and in data set [8] was Active. Moreover, the selectivity ratio at 72 h in the data set with AChE stood at 735. In “in vitro”, this compound showed a half-inhibitory concentration (IC50) at 72 h of 25000 nM. The same compound registered an inhibition in vivo at 10 mg/kg in “animal or person” of 35%. Besides, in [14], the Activity entry was “Non-Toxic”.
`O=C(CCN1CCOCC1)Nc1n[nH]c2ncccc12` showed an inhibition in [1] of 71.8%. The values for the IC50 (on Acetylcholinesterase [3]; in [6]; at Cholinesterase [7]) were 275 nM, 2130 nM and 473 nM, respectively.
Take `Cc1ccc2nc3c(c(N4CCCCC4)c2c1)CCCC3`: the inhibition in data set [1] was found to be 61.9%. Besides, the outcome in data set [2], in data set [4], in data set [5], in data set [11], in data set [8] and in [12] was Active. Further, the IC50 against Acetylcholinesterase [3] came out at 118 nM; in [6], 6700 nM; at Cholinesterase [7], 1990 nM. In the data set on AChE, the selectivity ratio at 72 h was found to be 321. In “in vitro”, this compound had an IC50 at 72 h of 37900 nM. In addition, the LD50 in “in vivo” was 42 mg/kg. 10 mg/kg produced 35% inhibition in vivo in the data set “animal or person”.
For `O=C(CCN1CCCCC1)Nc1n[nH]c2ncccc12`, on Acetylcholinesterase [3], 658 nM corresponded to half-maximal inhibition (IC50).
Turning to `Cc1ccc2nc3c(c(N4CCN(c5c6c(nc7ccc(C)cc57)CCCC6)CC4)c2c1)CCCC3`, the midpoint of inhibition on Acetylcholinesterase [3], the IC50, lay at 521 nM.
In turn, `O=[N+]([O-])c1ccc2nc3c(c(N4CCOCC4)c2c1)CCCC3` displayed an IC50 against Acetylcholinesterase [3] of 1220 nM.

The record behind these values is ChEMBL document CHEMBL5154718, “Synthesis, biological evaluation, and molecular modeling simulations of new heterocyclic hybrids as multi-targeted anti-Alzheimer's agents” (Eur J Med Chem, 2022).
